Consider six compounds from US7517857B2, “Immune-modulating peptide” (POSCO, priority 2002, dated 2009).

Common to all, as to format: cell-based
The target of assay [1] is T1, FPR (Homo sapiens, UniProt P21462).
T1 construct: expressed in transfected cells; host or cells: RBL-2H3 (rat basophilic leukemia) cells, G418-selected
T1 sequence (P21462 1-350): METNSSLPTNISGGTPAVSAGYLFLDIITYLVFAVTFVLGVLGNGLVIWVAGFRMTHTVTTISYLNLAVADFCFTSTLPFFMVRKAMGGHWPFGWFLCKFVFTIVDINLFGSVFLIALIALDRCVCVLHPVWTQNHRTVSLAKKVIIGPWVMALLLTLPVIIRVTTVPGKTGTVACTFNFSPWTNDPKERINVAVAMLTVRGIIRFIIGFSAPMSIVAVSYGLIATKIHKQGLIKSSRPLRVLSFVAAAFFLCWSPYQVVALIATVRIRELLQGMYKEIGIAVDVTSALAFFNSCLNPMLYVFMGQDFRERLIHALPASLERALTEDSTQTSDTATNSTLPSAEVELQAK
Briefly: ERK phosphorylation in FPR-expressing RBL-2H3 cells (immunoblot). To be noted: pretreatment prior to 1 μM WKYMVm, PTX 100 ng/ml, LY294002 50 μM, GFX 5 μM, BAPTA/AM 10 μM, PD98059 50 μM. The protocol: (§1) Cultured RBL-2H3 cells were aliquoted into 2×10^6 cells and stimulated with the indicated concentrations of WKYMVm and the peptides of the present invention for the indicated lengths of time. FPR- or FPRL1-expressing RBL-2H3 cells were stimulated with 1 μM WKYMVm for various periods of time (FIG. 3A). Two cells were preincubated with a vehicle or 100 ng/ml of PTX (24 hr), 50 μM of LY294002 (15 min), 5 μM of GFX (15 min), 10 μM BAPTA/AM (60 min), or 50 μM PD98059 (60 min) prior to 1 μM of WKYMVm treatment (FIG. 3B). FPR- or FPRL1-expressing RBL2H3 cells were stimulated with 10 μM of the peptides of the present invention for 2 min or 5 min, respectively (FIG. 3C).
(§2) After stimulation, the cells were washed with serum-free RPMI and lysed in a lysis buffer (20 mM Hepes, pH 7.2, 10% glycerol, 150 mM NaCl, 1% Triton X-100, 50 mM NaF, 1 mM Na3VO4, 10 μg/ml leupeptin, 10 μg/ml aprotinin, and 1 mM phenylmethylsulfonyl fluoride). The detergent-insoluble materials were pelleted by centrifugation (12,000×g, 15 min, at 4° C.), and the soluble supernatant fraction was removed and stored at −80° C. or used immediately. Protein concentrations in the lysates were determined using the Bradford protein assay reagent.
(§3) Each sample ([…] of protein) was subjected to 10% SDS-PAGE and phosphorylated ERK was determined by an immunoblot analysis with an anti-phospho-ERK antibody. Protein samples were prepared for electrophoresis by addition of a concentrated sample buffer. The portions in the samples were then separated by an 10% SDS-polyacrylamide gel using the buffer system described by Laemmli (17).
(§4) Following the electrophoresis, a western blot analysis with an anti-ERK2 antibody was performed to confirm that the same amounts of samples were used for the experiments. The proteins were blotted onto nitrocellulose membranes. The nitrocellulose membranes were then blocked by incubation with TBS (Tris-buffered saline, 0.05% Tween-20) containing 5% non-fat dry milk. Subsequently, the membranes were incubated with anti-phospho-ERK antibody, anti-phospho-Akt antibody or anti-Akt antibody washed with TBS. For a PKC translocation assay, an antibody for PKC isozyme-specific was incubated. Antigen-antibody complexes were visualized after incubating the membrane with a 1:5000 diluted goat anti-rabbit IgG or goat anti-mouse IgG antibody coupled to horseradish peroxidase and using the enhanced chemiluminescence detection system.

In assay [2] the target is T2, FPRL1 (Homo sapiens, UniProt P25090).
T2 construct: expressed in transfected cells; host or cells: RBL-2H3 (rat basophilic leukemia) cells, G418-selected
T2 sequence (P25090 1-351): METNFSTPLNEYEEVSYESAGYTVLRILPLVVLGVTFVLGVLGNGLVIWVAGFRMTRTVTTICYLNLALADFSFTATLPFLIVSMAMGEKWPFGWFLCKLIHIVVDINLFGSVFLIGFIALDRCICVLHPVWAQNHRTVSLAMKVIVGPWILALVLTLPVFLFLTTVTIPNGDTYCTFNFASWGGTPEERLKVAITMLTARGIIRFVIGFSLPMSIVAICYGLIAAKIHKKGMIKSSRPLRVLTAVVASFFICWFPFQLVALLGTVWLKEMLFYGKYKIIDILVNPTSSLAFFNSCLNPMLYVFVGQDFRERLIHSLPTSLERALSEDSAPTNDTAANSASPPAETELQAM
Briefly: ERK phosphorylation in FPRL1-expressing RBL-2H3 cells (immunoblot). To be noted: pretreatment prior to 1 μM WKYMVm, PTX 100 ng/ml, LY294002 50 μM, GFX 5 μM, BAPTA/AM 10 μM, PD98059 50 μM. As for the experimental part: as §1, §2, §3, §4

Assay [3] deals with T1, FPR. Briefly: Chemotaxis of FPR-expressing RBL-2H3 cells (modified Boyden chamber). To be noted: FPR cells; 50 μM LY294002 (15 min), 50 μM PD98059 (60 min); 1 μM WKYMVm. As for the experimental part: (§5) Chemotaxis assays were performed using multiwell chambers (modified Boyden chamber assay) (Neuroprobe Inc., Gaithersburg, Md.) (18). Briefly, polycarbonate filters (8 μm pore size) were precoated with 50 μg/ml of rat type I collagen (Collaborative Biomedicals) in a HEPES-buffered RPMI 1640 medium. A dry coated filter was placed on a 96-well chamber containing different concentrations of peptides. RBL-2H3 cells expressing FPR or FPRL1 were suspended in RPMI at a concentration of 1×10^6 cells/ml of serum-free RPMI, and 25 μl of the suspension were placed onto the upper well of the 96-well chemotaxis chamber. After incubation for 4 hours at 37° C., non-migrated cells were removed by scraping them out, and cells that migrated across the filter were dehydrated, fixed, and stained with hematoxylin (Sigma, St. Louis, Mo.). The stained cells in five randomly chosen high power fields (HPF) (400×) in that well were then counted. […] The numbers of migrated cells were determined by counting them in a high power field (400×). The Data are presented as means ±SE of three independent experiments each performed in duplicate. The effect of the peptides of the present invention on cellular chemotaxis in FPR- or FPRL1-expressing RBL-2H3 cells was measured. Various concentrations of each peptide were used for the chemotaxis assay with FPR- or FPRL1-expressing RBL-2H3 cells. The numbers of migrated cells were determined by counting them in a high power field (400×). The Data are presented as means ±SE of two independent experiments each performed in duplicates.

Assay [4] deals with T2, FPRL1. Briefly: Chemotaxis of FPRL1-expressing RBL-2H3 cells (modified Boyden chamber). To be noted: FPRL1 cells; 50 μM LY294002 (15 min), 50 μM PD98059 (60 min); 1 μM WKYMVm. The protocol:
as §5

For assay [5], the system named is human neutrophils. Briefly: Superoxide generation in human neutrophils (cytochrome c reduction). To be noted: for O^2− (nmol/10^6 cells), superoxide generation: cytochrome c reduction. As for the experimental part: Peripheral blood leukocyte concentrates were donated by the Ulsan Red Cross Blood Center (Ulsan, Korea). Human neutrophils were isolated according to the standard procedures of dextran sedimentation, hypotonic lysis of erythrocytes, and a lymphocyte separation medium gradient as described above (9). The isolated human neutrophils were then used promptly.
The activity of the peptides, WKYMVm, peptides of SEQ ID NOs: 1 to 24, and wkymvm on superoxide generation in human neutrophils was measured. Superoxide anion generation was quantified by measuring reduction of cytochrome c using a microtiter 96-well plate ELISA reader (Bio-Tekinstruments, EL312e, Winooski, Vt.) as described (14). The human neutrophils (1×10^6 cells/100 μl of RPMI 1640 medium per well of a 96-well plate) were preincubated with 50 μM cytochrome c at 37° C. for 1 min and then incubated with the indicated concentrations of peptides. The superoxide generation was measured as a change in light absorption at 550 nm over 5 minutes at 1 min intervals. From at least four independent experiments, peptides with active amino acids at each position were chosen.

For assay [6], the target named is T1, FPR. Briefly: [Ca2+]i increase in FPR-expressing RBL-2H3 cells (fura-2).
Assay [7] deals with T2, FPRL1. Briefly: [Ca2+]i increase in FPRL1-expressing RBL-2H3 cells (fura-2). The protocol: […] The level of [Ca^2+]i was determined fluorometrically by Grynkiewicz's method using fura-2/AM (15). Briefly, prepared cells were incubated with 3 μM fura-2/AM at 37° C. for 50 min in a fresh serum-free RPMI 1640 medium under continuous stirring. 2×10^6 cells were aliquoted for each assay in Ca^2+-free Locke's solution (154 mM NaCl, 5.6 mM KCl, 1.2 mM MgCl2, 5 mM HEPES, pH 7.3, 10 mM glucose, and 0.2 mM EGTA). Fluorescence changes at the dual excitation wavelengths of 340 nm and 380 nm and the emission wavelength of 500 nm were measured, and the calibrated fluorescence ratio was translated into [Ca^2+]i. The peak level of the increased [Ca^2+]i was monitored.
[…] The level of [Ca^2+]i was determined by the same procedures as above. The peak level of the increased [Ca^2+]i was monitored.

The target in assay [8] is T2, FPRL1. Briefly: Exocytosis: β-hexosaminidase secretion in FPRL1-expressing RBL-2H3 cells. To be noted: FPRL1 cells; 10 μM of each peptide (WKYMVm also various concentrations). The protocol: Granule secretion is one of the most important function of mast cells (20). The effect of WKYMVm on granule secretion was checked by measuring β-hexosaminidase secretion as described above (18). Briefly, RBL-2H3 cells (2×10^5/well) expressing FPR or FPRL1 were cultured overnight in a 24-well tissue culture plate. The cells were washed twice with Tyrode's buffer (137 mM NaCl, 12 mM NaHCO3, 5.6 mM glucose, 2.7 mM KCl, 1 mM CaCl2, 0.5 mM MgCl2, 0.4 mM NaH2PO4, 0.1g/100 ml BSA, and 25 mM HEPES, pH 7.4) and stimulated with each peptide. Various concentrations of WKYMVm were treated in FPR- or FPRL1-expressing RBL-2H3 cells (FIG. 5A). 1 μM of WKYMVm was used to stimulate two cell lines in the absence or presence of 10 μM BAPTA/AM (FIG. 5B). The reaction was terminated 20 min after stimulation by placing the plate on ice. Secretion of β-hexosaminidase into the medium was determined by incubating 50 μl of supernatant or cell lysate with 25 μl of 5 mM p-nitrophenyl-N-acetyl-β-D-glucosamide in 0.1 M sodium citrate buffer (pH 3.8) at 37° C. for 2 hr. At the end of the incubation, 50 μl of 0.4 M Na2CO3 were added. Absorbance was monitored at 405 nm. Data are means ±S.E. of a single representative of three experiments performed in triplicate. Values (means ±S.E.) were expressed as a percent of total β-hexosaminidase present in the cells.
10 μM of each peptide was treated in FPR- (FIG. 6A) or FPRL1-expressing RBL-2H3 cells (FIG. 6B). The peptide-induced secretion of β-hexosaminidase was determined as above. Data are means ±S.E. of a single representative of three experiments performed in triplicate.

Where a SMILES comes first, the peptide text is derived from it. [ ]: non-standard residue; d: D form.

With `CN(C)CCCn1cc(C2=C(c3c[nH]c4ccccc34)C(=O)NC2=O)c2ccccc21` [GF109203X], the “effect of inhibitor pretreatment on WKYMVm-induced ERKs activation” value in assay [1] and in assay [2] was “could not effect WKYMVm-induced ERK activation” in each case.

On to `COc1cccc(-c2cc(=O)c3ccccc3o2)c1N` [PD98059, reference compound], for which the “effect of inhibitor pretreatment on WKYMVm-induced ERKs activation” value in assay [1] and in assay [2] was “sensitive” in each case. In addition, the “effect of inhibitor pretreatment on WKYMVm-induced cellular chemotaxis” value in assay [3] and in assay [4] was “sensitive” each time.

Turning to `Cn1cc(C2=C(c3cn(CCCSC(=N)N)c4ccccc34)C(=O)NC2=O)c2ccccc21` [Ro-31-8220], the “effect of inhibitor pretreatment on WKYMVm-induced ERKs activation” value in assay [1] and in assay [2] was “could not effect WKYMVm-induced ERK activation” in each case.

For the compound `CSCC[C@H](NC(=O)[C@H](Cc1c[nH]c2ccccc12)NC(=O)[C@H](CCCCN)NC(=O)[C@@H](N)Cc1c[nH]c2ccccc12)C(=O)N[C@H](C(=O)N[C@H](CCSC)C(N)=O)C(C)C` [WKWMVm-NH2, Trp-Lys-Trp-Met-Val-D-Met-NH2] (H-WKWMV[dM]-NH2; N-terminus assumed), the “superoxide generation” value in assay [5] (10 μM concentration) was “more potent activity than WKYMVm”. Also, the results for the “O^2− (nmol/10^6 cells), superoxide generation” value in assay [5] (peptide 100 nM) and in assay [5] (peptide 10 μM) were 11.5 ± 0.97 nmol/10^6 cells and 65.0 ± 12.10 nmol/10^6 cells, respectively. Besides, the “[Ca^2+]i increasing activity” value in assay [6] was “more improved affinity for the FPR against the peptide WKYMVm”; in assay [7] it was “higher affinity to FPRL1”.

For `CSCC[C@H](NC(=O)[C@H](Cc1ccc(O)cc1)NC(=O)[C@H](CCCCN)NC(=O)[C@@H](N)Cc1c[nH]c2ccccc12)C(=O)NCC(=O)N[C@H](CCSC)C(N)=O` [WKYMGm-NH2, Trp-Lys-Tyr-Met-Gly-D-Met-NH2] (H-WKYMG[dM]-NH2; N-terminus assumed), the “O^2− (nmol/10^6 cells), superoxide generation” value was 1.1 ± 0.05 nmol/10^6 cells in assay [5] (peptide 100 nM) and 27.3 ± 2.61 nmol/10^6 cells in assay [5] (peptide 10 μM). In addition, the “[Ca^2+]i increasing activity” value in assay [6] is “did not effect a [Ca^2+]i increase until 20 μM treatment”; in assay [7] it was “showed [Ca^2+]i-increasing activity in FPRL1 cells, with a little lower affinity to FPRL1”. Also, in assay [6] (fura-2 loaded), the “EC50 (nM), intracellular calcium increase” value was “inactive”.

`CSCC[C@H](NC=O)C(=O)N[C@@H](CC(C)C)C(=O)N[C@@H](Cc1ccccc1)C(=O)O` [fMLF, N-formyl-methionyl-leucyl-phenylalanine]: the “granule secretion / β-hexosaminidase release (words)” value in assay [8] was “but not fMLF or wkymvm, stimulated granule secretion”.
